Experiments:
[1] = background b17; approximate; cited from earlier work
[2] = target: T1, receptors in rat forebrain (mainly α4β2) (Rattus norvegicus, UniProt P09483+P12390); assay: biochemical; assay type: binding; conditions: Table 3; mean of 3 independent measurements; read-out: Ki Forebrain
T1 construct: from tissue; host or cells: rat forebrain homogenate

[3] = test system: receptors in rat forebrain (mainly α4β2); assay: biochemical; assay type: binding; conditions: Table 3; ratio of the corresponding Ki values
[4] = target: T2, α3β4 nAChR subtype (Rattus norvegicus, UniProt P04757+P12392); assay: biochemical; assay type: binding; conditions: Table 3; mean of 3 independent measurements; read-out: Ki α3β4
T2 construct: expressed in transfected cells
From the text: (§1) In order to assess the steric and hydropathic effects of the C-5 substituents of the pyridine on the binding affinity and subtype-selectivity at neuronal nicotinic acetylcholine receptors. […] The binding affinity ratios for a ligand, calculated from its affinities at an α subunit paired with either the β2 osubunit or the β4 subunit, represents a measure of the selectivity of that ligand with regard to the β subunits.

[5] = target: T3, α4β4 nAChR subtype (Rattus norvegicus, UniProt P09483+P12392); assay: biochemical; assay type: binding; conditions: Table 3; mean of 3 independent measurements; read-out: Ki α4β4
T3 construct: expressed in transfected cells
From the text: as §1

[6] = target: T4, α4β2 nAChR subtype (Rattus norvegicus, UniProt P09483+P12390); assay: biochemical; assay type: binding
T4 construct: expressed in transfected cells
From the text: as §1

[7] = target: T5, α3β2 nAChR subtype (Rattus norvegicus, UniProt P04757+P12390); assay: biochemical; assay type: binding; conditions: Table 3; mean of 3 independent measurements; read-out: Ki α3β2
T5 construct: expressed in transfected cells
From the text: as §1

[8] = target: T6, α2β4 nAChR subtype (Rattus norvegicus, UniProt P12389+P12392); assay: biochemical; assay type: binding; conditions: Table 3; mean of 3 independent measurements; read-out: Ki α2β4
T6 construct: expressed in transfected cells
From the text: as §1

[9] = target: T7, α2β2 nAChR subtype (Rattus norvegicus, UniProt P12389+P12390); assay: biochemical; assay type: binding; conditions: Table 3; mean of 3 independent measurements; read-out: Ki α2β2
T7 construct: expressed in transfected cells
From the text: as §1

T4 sequence (P12390 25-500): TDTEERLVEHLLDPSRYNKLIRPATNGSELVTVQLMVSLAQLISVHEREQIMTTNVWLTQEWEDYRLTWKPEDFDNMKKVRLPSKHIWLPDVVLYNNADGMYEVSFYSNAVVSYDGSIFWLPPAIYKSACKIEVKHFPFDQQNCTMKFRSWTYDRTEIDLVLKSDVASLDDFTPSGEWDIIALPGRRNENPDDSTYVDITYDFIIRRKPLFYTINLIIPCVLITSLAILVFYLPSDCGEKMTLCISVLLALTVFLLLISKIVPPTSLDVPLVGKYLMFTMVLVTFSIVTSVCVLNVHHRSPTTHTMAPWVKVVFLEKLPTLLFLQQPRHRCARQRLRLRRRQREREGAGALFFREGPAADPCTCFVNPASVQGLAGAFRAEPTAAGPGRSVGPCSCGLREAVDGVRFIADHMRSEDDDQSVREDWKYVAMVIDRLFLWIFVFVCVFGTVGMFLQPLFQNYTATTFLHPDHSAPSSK
T4 sequence (P09483 31-630): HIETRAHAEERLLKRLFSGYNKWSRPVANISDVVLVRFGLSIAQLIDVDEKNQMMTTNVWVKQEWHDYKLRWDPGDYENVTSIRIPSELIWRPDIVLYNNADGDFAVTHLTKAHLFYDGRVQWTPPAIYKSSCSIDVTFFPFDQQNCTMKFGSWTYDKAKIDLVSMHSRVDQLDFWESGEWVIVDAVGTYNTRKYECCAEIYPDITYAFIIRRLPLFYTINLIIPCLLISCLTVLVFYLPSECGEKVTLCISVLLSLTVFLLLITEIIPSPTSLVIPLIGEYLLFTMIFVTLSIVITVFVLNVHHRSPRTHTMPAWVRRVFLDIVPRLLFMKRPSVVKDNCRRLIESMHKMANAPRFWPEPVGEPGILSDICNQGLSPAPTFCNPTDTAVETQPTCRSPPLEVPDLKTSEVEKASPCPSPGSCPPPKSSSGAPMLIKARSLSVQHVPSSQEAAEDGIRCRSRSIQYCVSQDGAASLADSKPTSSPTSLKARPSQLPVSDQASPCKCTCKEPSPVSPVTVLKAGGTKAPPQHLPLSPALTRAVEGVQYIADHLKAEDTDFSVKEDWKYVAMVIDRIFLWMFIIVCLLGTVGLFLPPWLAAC
T3 sequence (P12392 21-495): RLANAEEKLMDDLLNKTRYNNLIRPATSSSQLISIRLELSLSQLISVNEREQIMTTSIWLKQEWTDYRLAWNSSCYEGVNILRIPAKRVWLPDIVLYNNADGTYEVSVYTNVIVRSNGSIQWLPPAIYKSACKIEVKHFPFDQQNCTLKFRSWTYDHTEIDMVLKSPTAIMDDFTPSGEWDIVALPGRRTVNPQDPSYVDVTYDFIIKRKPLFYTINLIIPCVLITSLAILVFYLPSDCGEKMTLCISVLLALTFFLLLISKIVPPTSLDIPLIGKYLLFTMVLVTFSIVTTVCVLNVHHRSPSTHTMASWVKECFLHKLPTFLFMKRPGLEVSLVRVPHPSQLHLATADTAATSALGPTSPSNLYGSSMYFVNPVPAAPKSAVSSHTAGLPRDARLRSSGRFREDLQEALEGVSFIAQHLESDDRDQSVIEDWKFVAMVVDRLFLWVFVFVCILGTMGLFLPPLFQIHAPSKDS
T3 sequence (P09483 31-630): as the sequence (P09483 31-630) above
T1 sequence (P09483 31-630): as above
T1 sequence (P12390 25-500): as the sequence (P12390 25-500) above
T6 sequence (P12389 28-511): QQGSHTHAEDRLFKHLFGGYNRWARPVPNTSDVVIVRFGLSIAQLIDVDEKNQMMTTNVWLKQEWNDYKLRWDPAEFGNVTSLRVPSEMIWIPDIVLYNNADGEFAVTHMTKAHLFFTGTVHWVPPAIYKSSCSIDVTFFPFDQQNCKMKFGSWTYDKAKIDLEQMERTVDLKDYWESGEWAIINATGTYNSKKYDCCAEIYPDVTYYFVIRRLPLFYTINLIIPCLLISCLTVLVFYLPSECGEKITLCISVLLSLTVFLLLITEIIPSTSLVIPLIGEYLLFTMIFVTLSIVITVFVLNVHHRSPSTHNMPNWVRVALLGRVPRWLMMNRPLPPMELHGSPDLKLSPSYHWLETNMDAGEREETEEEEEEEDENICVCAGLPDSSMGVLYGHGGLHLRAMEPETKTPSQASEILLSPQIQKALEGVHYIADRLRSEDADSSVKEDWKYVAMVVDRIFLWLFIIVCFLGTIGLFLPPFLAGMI
T6 sequence (P12392 21-495): as the sequence (P12392 21-495) above
T2 sequence (P04757 26-499): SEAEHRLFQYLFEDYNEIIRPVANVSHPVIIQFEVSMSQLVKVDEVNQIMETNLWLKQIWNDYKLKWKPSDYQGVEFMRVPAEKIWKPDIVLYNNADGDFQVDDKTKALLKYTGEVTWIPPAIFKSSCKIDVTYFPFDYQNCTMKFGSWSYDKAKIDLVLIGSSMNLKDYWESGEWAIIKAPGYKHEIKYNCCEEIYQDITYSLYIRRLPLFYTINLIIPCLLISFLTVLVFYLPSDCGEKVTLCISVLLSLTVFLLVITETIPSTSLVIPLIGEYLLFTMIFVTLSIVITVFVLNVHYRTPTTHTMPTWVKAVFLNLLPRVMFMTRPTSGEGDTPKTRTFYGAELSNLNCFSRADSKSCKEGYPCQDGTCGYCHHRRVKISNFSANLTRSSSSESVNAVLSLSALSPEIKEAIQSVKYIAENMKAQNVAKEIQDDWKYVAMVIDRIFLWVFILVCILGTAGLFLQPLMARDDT
T2 sequence (P12392 21-495): as the sequence (P12392 21-495) above
T7 sequence (P12390 25-500): as the sequence (P12390 25-500) above
T7 sequence (P12389 28-511): as the sequence (P12389 28-511) above
T5 sequence (P12390 25-500): as the sequence (P12390 25-500) above
T5 sequence (P04757 26-499): as the sequence (P04757 26-499) above

Row | SMILES | analgesic potency, times that of morphine [1] | Ki [2] | Affinity ratio (α3β4/Forbrain) [3] | Ki [4] | Ki [5] | affinities for α4β2 nAChR subtype (in words) [6] | Ki ([6]; Table 3, mean of 3 independent measurements, read-out: Ki α4β2) | Ki [7] | Ki [8] | Ki [9]
1 | Clc1ccc(C2CC3CCC2N3)cn1 (racemic) [Epibatidine, 2-exo-(2-Chloro-5-pyridyl)-7-azabicyclo[2.2.1]heptane] | ~500 times |  |  |  |  |  |  |  |  | 
2 | FCCCCC#Cc1cncc(OC[C@@H]2CCCN2)c1 [Ligand 42] |  | 3.45 nM | 2,197 | 7580 nM | 721 nM | subnanomolar | 0.907 nM | 5.27 nM | 680 nM | 3.5 nM

— patent publication US8030300B2, “Ligands for nicotinic acetylcholine receptors, and methods of making and using them” (priority 2003, dated 2011)
